Reference: US20110039847A1, “AMIDE DERIVATIVES AS SIRTUIN MODULATORS” (Sirtris Pharmaceuticals, Inc, priority 2007, published 2011)

Target: T1, SIRT1 (Homo sapiens, UniProt Q96EB6)
T1 sequence (Q96EB6 1-747): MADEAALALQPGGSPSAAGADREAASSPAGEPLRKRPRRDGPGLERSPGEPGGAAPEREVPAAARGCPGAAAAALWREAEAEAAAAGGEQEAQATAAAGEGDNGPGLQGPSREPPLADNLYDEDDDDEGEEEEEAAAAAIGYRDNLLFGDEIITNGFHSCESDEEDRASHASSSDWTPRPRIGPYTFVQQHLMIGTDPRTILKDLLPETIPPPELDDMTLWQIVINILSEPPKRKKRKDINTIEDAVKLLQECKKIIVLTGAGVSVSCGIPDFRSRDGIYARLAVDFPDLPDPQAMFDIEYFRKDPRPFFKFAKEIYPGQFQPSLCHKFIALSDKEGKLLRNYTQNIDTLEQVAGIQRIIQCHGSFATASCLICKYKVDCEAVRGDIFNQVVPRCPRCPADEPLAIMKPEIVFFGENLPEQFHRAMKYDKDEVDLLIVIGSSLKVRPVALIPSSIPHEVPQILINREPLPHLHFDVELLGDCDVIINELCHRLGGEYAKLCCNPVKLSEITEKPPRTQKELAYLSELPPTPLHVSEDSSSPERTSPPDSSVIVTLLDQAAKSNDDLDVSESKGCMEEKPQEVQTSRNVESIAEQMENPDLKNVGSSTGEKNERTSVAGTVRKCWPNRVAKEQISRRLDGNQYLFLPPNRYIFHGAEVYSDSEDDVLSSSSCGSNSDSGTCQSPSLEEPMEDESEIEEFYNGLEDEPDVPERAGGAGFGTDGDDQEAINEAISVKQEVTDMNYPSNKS
Test: Mass spectrometry based SIRT1 deacetylation (activation) assay
Assay type: biochemical
Details: 0.5 μM peptide substrate, 120 μM βNAD+, 10 nM SIRT1, 25 min at 25° C.; for Emax: 25 min, read-out: % Fold Act. (percent maximum fold activation)
Source text: A mass spectrometry based assay was used to identify modulators of SIRT1 activity. The mass spectrometry based assay utilizes a peptide having 20 amino acid residues as follows: Ac-EE-K(biotin)-GQSTSSHSK(Ac)NleSTEG-K(5TMR)-EE-NH2 (SEQ ID NO: 1) wherein K(Ac) is an acetylated lysine residue and Nle is a norleucine. The peptide is labeled with the fluorophore 5TMR (excitation 540 nm/emission 580 nm) at the C-terminus. The sequence of the peptide substrate is based on p53 with several modifications. In addition, the methionine residue naturally present in the sequence was replaced with the norleucine because the methionine may be susceptible to oxidation during synthesis and purification.
The mass spectrometry assay is conducted as follows: 0.5 μM peptide substrate and 120 μM βNAD^+ is incubated with 10 nM SIRT1 for 25 minutes at 25° C. in a reaction buffer (50 mM Tris-acetate pH 8, 137 mM NaCl, 2.7 mM KCl, 1 mM MgCl2, 5 mM DTT, 0.05% BSA). Test compounds may be added to the reaction as described above. […] After the 25 minute incubation with SIRT1, 10 μL of 10% formic acid is added to stop the reaction. Reactions are sealed and frozen for later mass spec analysis. Determination of the mass of the substrate peptide allows for precise determination of the degree of acetylation (i.e. starting material) as compared to deacetylated peptide (product).
A control for inhibition of sirtuin activity is conducted by adding 1 μL of 500 mM nicotinamide as a negative control at the start of the reaction (e.g., permits determination of maximum sirtuin inhibition). A control for activation of sirtuin activity is conducted using 10 nM of sirtuin protein, with 1 μL of DMSO in place of compound, to determine the amount of deacetylation of the substrate at a given timepoint within the linear range of the assay. This timepoint is the same as that used for test compounds and, within the linear range, the endpoint represents a change in velocity.
For the above assay, SIRT1 protein was expressed and purified as follows. […] The protein was expressed by induction with 1 mM IPTG as an N-terminal His-tag fusion protein at 18° C. overnight and harvested at 30,000×g. Cells were lysed with lysozyme in lysis buffer (50 mM Tris-HCl, 2 mM Tris[2-carboxyethyl]phosphine (TCEP), 10 μM ZnCl2, 200 mM NaCl) and further treated with sonication for 10 min for complete lysis. The protein was purified over a Ni-NTA column (Amersham) and fractions containing pure protein were pooled, concentrated and run over a sizing column (Sephadex S200 26/60 global). The peak containing soluble protein was collected and run on an Ion-exchange column (MonoQ). Gradient elution (200 mM-500 mM NaCl) yielded pure protein. This protein was concentrated and dialyzed against dialysis buffer (20 mM Tris-HCl, 2 mM TCEP) overnight. The protein was aliquoted and frozen at −80° C. until further use.

Row | Structure (SMILES) | EC1.5 | Emax
1 | CN(C)CCN(C)c1cc(C(=O)Nc2ccccc2-c2nnc(C3CCC3)s2)nc(-c2ccccc2)n1 [Compound 45] | A (EC1.5≦1 uM) | 150 to 300%
2 | CNCCN(C)c1cc(C(=O)Nc2ccccc2-c2nnc(C3CCC3)s2)nc(-c2ccccc2)n1 [Compound 47] | A (EC1.5≦1 uM) | 150 to 300%
3 | CN(C)CCNc1cc(C(=O)Nc2ccccc2-c2nnc(C3CCC3)s2)nc(-c2ccccc2)n1 [Compound 48] | B (EC1.5>1 and ≦10 uM) | 150 to 300%
4 | CN(C)CCNc1cc(C(=O)Nc2ccccc2-c2nnc(C3CCCC3)s2)nc(-c2ccccc2)n1 [Compound 49] | B (EC1.5>1 and ≦10 uM) | 150 to 300%
5 | CCN(CCN(C)C)c1cc(C(=O)Nc2ccccc2-c2nnc(C3CCCC3)s2)nc(-c2ccccc2)n1 [Compound 50] | B (EC1.5>1 and ≦10 uM) | 150 to 300%
6 | CCN(CCN(C)C)c1cc(C(=O)Nc2ccccc2-c2nnc(C3CCC3)s2)nc(-c2ccccc2)n1 [Compound 51] | A (EC1.5≦1 uM) | 150 to 300%
7 | CCc1nnc(-c2ccccc2NC(=O)c2cc(N(C)CCNC)nc(-c3ccccc3)n2)s1 [Compound 52] | A (EC1.5≦1 uM) | 150 to 300%
8 | CCc1nnc(-c2ccccc2NC(=O)c2cc(NCCN(C)C)nc(-c3ccccc3)n2)s1 [Compound 53] | B (EC1.5>1 and ≦10 uM) | 150 to 300%
9 | CCCc1nnc(-c2ccccc2NC(=O)c2cc(NCCN(C)C)nc(-c3ccccc3)n2)s1 [Compound 54] | B (EC1.5>1 and ≦10 uM) | 150 to 300%
10 | CCc1nnc(-c2ccccc2NC(=O)c2cc(N(CC)CCN(C)C)nc(-c3ccccc3)n2)s1 [Compound 55] | A (EC1.5≦1 uM) | 150 to 300%
11 | CCc1nnc(-c2ccccc2NC(=O)c2cc(N(C)CCN(C)C)nc(-c3ccccc3)n2)s1 [Compound 56] | B (EC1.5>1 and ≦10 uM) | 150 to 300%
12 | CCOC(=O)c1nnc(-c2ccccc2NC(=O)c2cc(N(C)CCN(C)C)nc(-c3ccccc3)n2)s1 [Compound 57] | C (EC1.5>10 uM) | < 150%
13 | CN(C)CCNC(=O)c1nnc(-c2ccccc2NC(=O)c2cc(NCCN(C)C)nc(-c3ccccc3)n2)s1 [Compound 58] | A (EC1.5≦1 uM) | ≥ 300%
14 | CCOC(=O)c1nnc(-c2ccccc2NC(=O)c2cc(N(CC)CCN(C)C)nc(-c3ccccc3)n2)s1 [Compound 59] | A (EC1.5≦1 uM) | 150 to 300%
15 | CCCCc1nnc(-c2ccccc2NC(=O)c2cc(NCCN(C)C)nc(-c3ccccc3)n2)s1 [Compound 61] | B (EC1.5>1 and ≦10 uM) | < 150%
16 | CCCCc1nnc(-c2ccccc2NC(=O)c2cc(N(CC)CCN(C)C)nc(-c3ccccc3)n2)s1 [Compound 62] | A (EC1.5≦1 uM) | 150 to 300%
17 | CCN(CCN(C)C)c1cc(C(=O)Nc2ccccc2-c2ncc(C(C)(C)C)s2)nc(-c2ccccc2)n1 [Compound 63] | A (EC1.5≦1 uM) | 150 to 300%
18 | CCN(CCN(C)C)c1cc(C(=O)Nc2ccccc2-c2ncc(C(C)(C)C)o2)nc(-c2ccccc2)n1 [Compound 65] | B (EC1.5>1 and ≦10 uM) | 150 to 300%
19 | CN(C)CCNc1cc(C(=O)Nc2ccccc2-c2nnc(C(N)=O)s2)nc(-c2ccccc2)n1 [Compound 66] | A (EC1.5≦1 uM) | 150 to 300%
20 | NC(=O)c1nnc(-c2ccccc2NC(=O)c2cc(N3CCNCC3)nc(-c3ccccc3)n2)s1 [Compound 67] | A (EC1.5≦1 uM) | 150 to 300%
21 | CCN(CCN(C)C)c1cc(C(=O)Nc2ccccc2-c2cnc(-c3ccccc3)[nH]2)nc(-c2ccccc2)n1 [Compound 68] | A (EC1.5≦1 uM) | ≥ 300%
22 | CN(C)CCNc1cc(C(=O)Nc2ccccc2-c2nnc(-c3ccccn3)s2)nc(-c2ccccc2)n1 [Compound 73] | A (EC1.5≦1 uM) | ≥ 300%
23 | CCN(CCN(C)C)c1cc(C(=O)Nc2ccccc2-c2nnc(-c3ccccn3)s2)nc(-c2ccccc2)n1 [Compound 74] | A (EC1.5≦1 uM) | ≥ 300%
24 | CC(C)(C)c1cnc(-c2ccccc2NC(=O)c2cc(OC[C@@H](O)CO)cc(-c3ccccc3)n2)o1 [Compound 76] | B (EC1.5>1 and ≦10 uM) | ≥ 300%
25 | CN(C)CCNc1cc(C(=O)Nc2ccccc2-c2nnc(-c3ccncc3)s2)nc(-c2ccccc2)n1 [Compound 78] | A (EC1.5≦1 uM) | ≥ 300%
26 | CCCc1nnc(-c2ccccc2NC(=O)c2cc(N(CC)CCN(C)C)nc(-c3ccccc3)n2)s1 [Compound 79] | A (EC1.5≦1 uM) | ≥ 300%
27 | CCN(CCN(C)C)c1cc(C(=O)Nc2ccccc2-c2nnc(-c3ccncc3)s2)nc(-c2ccccc2)n1 [Compound 82] | A (EC1.5≦1 uM) | ≥ 300%

More lines, now with the values ahead:

Row | EC1.5 | Emax | Structure (SMILES)
28 | A (EC1.5≦1 uM) | ≥ 300% | CCN(CCN(C)C)c1cc(C(=O)Nc2ccccc2-c2ncc(C(C)(C)C)o2)nc(-c2ccccc2)c1 [Compound 43]
29 | A (EC1.5≦1 uM) | ≥ 300% | CNCCN(C)c1cc(C(=O)Nc2ccccc2-c2nnc(-c3ccccc3)s2)nc(-c2ccccc2)c1 [Compound 44]
30 | A (EC1.5≦1 uM) | 150 to 300% | CC(C)Cc1nnc(-c2ccccc2NC(=O)c2cc(NCCN(C)C)nc(-c3ccccc3)n2)s1 [Compound 60]
31 | A (EC1.5≦1 uM) | 150 to 300% | CCN(CCN(C)C)c1cc(C(=O)Nc2ccccc2-c2ncc(-c3ccccc3)o2)nc(-c2ccccc2)n1 [Compound 64]
32 | A (EC1.5≦1 uM) | 150 to 300% | NC(=O)c1nnc(-c2ccccc2NC(=O)c2cc(N3CCN4CCC[C@H]4C3)nc(-c3ccccc3)n2)s1 [Compound 69]
33 | A (EC1.5≦1 uM) | 150 to 300% | CC(C)(C)c1cnc(-c2ccccc2NC(=O)c2cc(N3CCOCC3)cc(-c3ccccc3)n2)o1 [Compound 70]
34 | A (EC1.5≦1 uM) | 150 to 300% | CCN(CCN(C)C)c1cc(C(=O)Nc2ccccc2-c2nnc(C(N)=O)s2)nc(-c2ccccc2)n1 [Compound 71]
35 | A (EC1.5≦1 uM) | ≥ 300% | CC(C)c1nnc(-c2ccccc2NC(=O)c2cc(NCCN(C)C)nc(-c3ccccc3)n2)s1 [Compound 72]
36 | B (EC1.5>1 and ≦10 uM) | ≥ 300% | CC(C)(C)c1cnc(-c2ccccc2NC(=O)c2cc(OC[C@@H](O)CO)cc(-c3ccccc3)n2)s1 [Compound 75]
37 | A (EC1.5≦1 uM) | ≥ 300% | CN(C)CCNc1cc(C(=O)Nc2ccccc2-c2nnc(-c3cccnc3)s2)nc(-c2ccccc2)n1 [Compound 77]
38 | B (EC1.5>1 and ≦10 uM) | 150 to 300% | CCN(CCN(C)C)c1cc(C(=O)Nc2ccccc2-c2nnc(CC(C)C)s2)nc(-c2ccccc2)n1 [Compound 80]
39 | A (EC1.5≦1 uM) | ≥ 300% | CCN(CCN(C)C)c1cc(C(=O)Nc2ccccc2-c2nnc(-c3cccnc3)s2)nc(-c2ccccc2)n1 [Compound 81]
